Data from patent publication US10556907B2 (AbbVie Inc., priority 2015, dated 2020).

Key:
Experiment in all cases: Method 1: intracellular Ca2+ release (FLIPR, Calcium 5) in recombinant CHO-K1 cells
Assay type in all cases: cell-based
[1] = target: T1, human S1PR3 receptor (Homo sapiens, UniProt Q99500); details: (1): determined with method 1; read-out: S1P3 EC50
T1 construct: host or cells: CHO-K1
Experimental: (§1) Agonistic activity was measured using two different methods, described below.
(§2) Method 1. Intracellular Ca^2+ Release
(§3) Agonist potency and intrinsic activity was assessed by measurement of intracellular Ca^2+ release. Recombinant CHO-K1 cells (Euroscreen, Brussels, Belgium) expressing human S1PR5, S1PR1, S1PR3 or S1PR4 receptors, aequorin, and GTP binding protein Gq/i5 were cultured using a medium containing nutrient mixture F-12 Ham (Sigma-Aldrich) with 10% FBS, and 100 μg/mL gentamicin and equilibrated at 5% CO2.
(§4) 15.000 cells in 20 μL medium were seeded into Biocoat poly-D-Lysine coated 384 well plates (Becton Dickinson #35-6663) and grown to 95% confluency after 24 h.
(§5) Culture medium was replaced by an assay buffer consisting of HBBS with Ca^2+ and Mg^2+ (Invitrogen #14025-050), 20 mmol/L Hepes (Sigma-Aldrich #H-3375), 2.5 mmol/L probenecid (Sigma-Aldrich #P-8761, and 0.1% BSA (Sigma-Aldrich #A-7030) pH 7.4. The Calcium 5 no-wash FLIPR assay kit (Molecular Devices #5000625) was performed as described in the kit instructions. Cells were incubated with Calcium 5 dye for 1 h at 37° C., 5% CO2 in the dark. After 45 min adaptation to RT assessment of agonist stimulation of intracellular Ca^2+ release was performed by addition of test compounds at concentrations obtained by serial dilution. Phospho-fingolimod was used as positive control. Antagonists were pre-incubated for 10 min with cells before addition of the agonist (phospho-fingolimod at EC80). Measurements were performed using a fluorometric imaging plate reader FLIPR® tetra (Molecular Devices). Agonist at the human S1P receptors were characterized by deducing EC50 (potency) values from a nonlinear fit to the measured fluorescence raw data after normalization to the reference agonist (phospho-fingolimod) curve.

[2] = target: T2, human S1PR5 receptor (Homo sapiens, UniProt Q9H228); details: agonist potency, determined with method 1 (symbols A-D); read-out: S1P5 EC50 range
T2 construct: host or cells: CHO-K1
Experimental: as §1, §2, §3, §4, §5

[3] = target: T3, human S1PR1 receptor (Homo sapiens, UniProt P21453); details: (1): determined with method 1; read-out: S1P1 EC50
T3 construct: host or cells: CHO-K1
Experimental: as §1, §2, §3, §4, §5

T2 sequence (Q9H228 whole entry): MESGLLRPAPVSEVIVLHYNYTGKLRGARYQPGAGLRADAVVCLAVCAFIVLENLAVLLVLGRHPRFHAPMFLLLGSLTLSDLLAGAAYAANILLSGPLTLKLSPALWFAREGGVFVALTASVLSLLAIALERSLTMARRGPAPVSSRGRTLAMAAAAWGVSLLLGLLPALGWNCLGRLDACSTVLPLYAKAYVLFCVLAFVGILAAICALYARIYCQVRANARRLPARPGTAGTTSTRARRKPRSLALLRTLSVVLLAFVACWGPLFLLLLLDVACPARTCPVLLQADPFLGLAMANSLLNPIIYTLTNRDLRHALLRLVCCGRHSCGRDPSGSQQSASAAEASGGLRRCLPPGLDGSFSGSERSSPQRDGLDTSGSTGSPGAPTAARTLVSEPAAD
T3 sequence (P21453 whole entry): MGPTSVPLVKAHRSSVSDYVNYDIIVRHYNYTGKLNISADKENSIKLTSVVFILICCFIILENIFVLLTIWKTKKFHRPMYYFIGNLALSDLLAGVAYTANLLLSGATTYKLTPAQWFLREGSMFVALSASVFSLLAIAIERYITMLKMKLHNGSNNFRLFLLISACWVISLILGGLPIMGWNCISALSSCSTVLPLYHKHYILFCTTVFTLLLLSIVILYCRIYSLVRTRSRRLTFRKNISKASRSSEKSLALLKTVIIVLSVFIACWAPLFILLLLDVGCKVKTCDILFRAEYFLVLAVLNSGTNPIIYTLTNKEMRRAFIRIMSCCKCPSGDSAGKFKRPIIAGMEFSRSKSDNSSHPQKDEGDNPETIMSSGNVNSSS
T1 sequence (Q99500 whole entry): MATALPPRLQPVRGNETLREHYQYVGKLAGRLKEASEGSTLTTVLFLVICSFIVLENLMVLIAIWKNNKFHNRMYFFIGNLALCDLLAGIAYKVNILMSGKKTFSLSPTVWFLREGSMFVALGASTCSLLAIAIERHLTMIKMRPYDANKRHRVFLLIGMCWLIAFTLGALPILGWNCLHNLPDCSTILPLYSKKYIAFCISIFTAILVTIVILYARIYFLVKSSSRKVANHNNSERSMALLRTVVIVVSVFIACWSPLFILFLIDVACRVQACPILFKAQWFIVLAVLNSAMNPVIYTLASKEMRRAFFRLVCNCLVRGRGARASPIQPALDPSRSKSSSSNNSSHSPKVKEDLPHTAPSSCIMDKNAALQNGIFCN

Row | Compound | EC50 [1] | EC50 [2] | EC50 [3]
1 | O=C(O)CCN1CCc2nc(-c3ccc(OCc4cccc(C(F)(F)F)c4)cc3)ncc2C1 [Compound 86, 3-(2-(4-((3-(trifluoromethyl)benzyl)oxy)phenyl)-7,8-dihydropyrido[4,3-d]pyrimidin-6(5H)-yl)propanoic acid] | > 1000 nM | < 10 nM | > 1000 nM
2 | O=C(O)CCN1CCc2nc(-c3ccc(OCc4ccc(F)cc4)cc3)c(F)cc2C1 [Compound 190, 3-(2-(4-((4-fluorobenzyl)oxy)phenyl)-3-fluoro-7,8-dihydro-1,6-naphthyridin-6(5H)-yl)propanoic acid] | > 1000 nM | < 10 nM | < 1000 nM
3 | O=C(O)CCN1CCc2nc(-c3ccc(OCc4ccc(F)c(F)c4)cc3)ncc2C1 [Compound 71, 3-(2-(4-((3,4-difluorobenzyl)oxy)phenyl)-7,8-dihydropyrido[4,3-d]pyrimidin-6(5H)-yl)propanoic acid] | > 1000 nM | < 10 nM | > 1000 nM
4 | CC(CC(=O)O)N1Cc2ccc(-c3ccc(OCc4c(Cl)cccc4Cl)cc3)nc2C1 (stereo not drawn) [Compound 201, 3-(2-(4-((2,6-dichlorobenzyl)oxy)phenyl)-5H-pyrrolo[3,4-b]pyridin-6(7H)-yl)butanoic acid] | > 1000 nM | 1000 to 10000 nM | > 1000 nM
5 | O=C(O)CCN1CCc2nc(-c3ccc(OCc4ccccc4C(F)F)cc3)ncc2C1 [Compound 78, 3-(2-(4-((2-difluoromethylbenzyl)oxy)phenyl)-7,8-dihydropyrido[4,3-d]pyrimidin-6(5H)-yl)propanoic acid] | > 1000 nM | < 10 nM | > 1000 nM
6 | O=C(O)CCN1CCc2nc(-c3ccc(OCc4cccc(C(F)(F)F)c4)cc3)c(F)cc2C1 [Compound 194, 3-(2-(4-((3-trifluoromethylbenzyl)oxy)phenyl)-3-fluoro-7,8-dihydro-1,6-naphthyridin-6(5H)-yl)propanoic acid] | > 1000 nM | < 10 nM | > 1000 nM
7 | Cc1c(COc2ccc(-c3ncc4c(n3)CCN(CCC(=O)O)C4)cc2)cccc1C(F)(F)F [Compound 94, 3-(2-(4-((2-methyl-3-(trifluoromethyl)benzyl)oxy)phenyl)-7,8-dihydropyrido[4,3-d]pyrimidin-6(5H)-yl)propanoic acid] | > 1000 nM | < 10 nM | < 1000 nM
8 | O=C(O)CCN1CCc2nc(-c3ccc(OCc4ccc(C(F)(F)F)cc4)cc3)c(F)cc2C1 [Compound 191, 3-(2-(4-((4-trifluoromethylbenzyl)oxy)phenyl)-3-fluoro-7,8-dihydro-1,6-naphthyridin-6(5H)-yl)propanoic acid] | > 1000 nM | < 10 nM | < 1000 nM
9 | CSc1ccc(COc2ccc(-c3ncc4c(n3)CCN(CCC(=O)O)C4)cc2)cc1 [Compound 80, 3-(2-(4-((4-(methylthio)benzyl)oxy)phenyl)-7,8-dihydropyrido[4,3-d]pyrimidin-6(5H)-yl)propanoic acid] | > 1000 nM | < 10 nM | > 1000 nM
10 | CC(C)Oc1ccc(-c2ncc3c(n2)CCN(CCC(=O)O)C3)cc1Cl [Compound 79, 3-(2-(3-chloro-4-isopropoxyphenyl)-7,8-dihydropyrido[4,3-d]pyrimidin-6(5H)-yl)propanoic acid] | > 1000 nM | 1000 to 10000 nM | > 1000 nM
11 | CC(CC(=O)O)N1CCc2nc(-c3ccc(OCc4ccc(Cl)cc4)cc3)ncc2C1 (stereo not drawn) [Compound 44, 3-(2-(4-((4-chlorobenzyl)oxy)phenyl)-7,8-dihydropyrido[4,3-d]pyrimidin-6(5H)-yl)butanoic acid] | > 1000 nM | 10 to 100 nM | > 1000 nM
12 | Cc1cc(OC(F)(F)F)ccc1COc1ccc(-c2ncc3c(n2)CCN(CCC(=O)O)C3)cc1 [Compound 93, 3-(2-(4-((2-methyl-4-(trifluoromethoxy)benzyl)oxy)phenyl)-7,8-dihydropyrido[4,3-d]pyrimidin-6(5H)-yl)propanoic acid] | > 1000 nM | < 10 nM | < 1000 nM
13 | O=C(O)CCN1CCc2nc(-c3ccc(OCc4cccc(F)c4)cc3)ncc2C1 [Compound 68, 3-(2-(4-((3-fluorobenzyl)oxy)phenyl)-7,8-dihydropyrido[4,3-d]pyrimidin-6(5H)-yl)propanoic acid] | > 1000 nM | 10 to 100 nM | > 1000 nM
14 | Cc1cc(COc2ccc(-c3ncc4c(n3)CCN(CCC(=O)O)C4)cc2)cc(OC(F)(F)F)c1 [Compound 95, 3-(2-(4-((3-methyl-5-(trifluoromethoxy)benzyl)oxy)phenyl)-7,8-dihydropyrido[4,3-d]pyrimidin-6(5H)-yl)propanoic acid] | > 1000 nM | < 10 nM | < 1000 nM

Continued, values first:

Row | EC50 [1] | EC50 [2] | EC50 [3] | Compound
15 | > 1000 nM | 10 to 100 nM | > 1000 nM | Cc1cc(-c2cc3c(cn2)CN(CCC(=O)O)CC3)ccc1OCc1ccccc1 [Compound 171, 3-(6-(4-(benzyloxy)-3-methylphenyl)-3,4-dihydro-2,7-naphthyridin-2(1H)-yl)propanoic acid]
16 | > 1000 nM | 10 to 100 nM | > 1000 nM | CC(CN1CCc2nc(-c3ccc(OCc4ccc(F)cc4)c(Cl)c3)ccc2C1)C(=O)O (stereo not drawn) [Compound 104, 3-(2-(4-((4-fluorobenzyl)oxy)-3-chlorophenyl)-7,8-dihydro-1,6-naphthyridin-6(5H)-yl)-2-methylpropanoic acid]
17 | > 1000 nM | < 10 nM | > 1000 nM | O=C(O)CCCN1CCc2nc(-c3ccc(OCc4ccccc4)cc3)ccc2C1 [Compound 115, 4-(2-(4-(benzyloxy)phenyl)-7,8-dihydro-1,6-naphthyridin-6(5H)-yl)butanoic acid]
18 | > 1000 nM | < 10 nM | < 1000 nM | O=C(O)CCN1CCc2nc(-c3ccc(OCc4cccc(OC(F)F)c4)cc3)ccc2C1 [Compound 164, 3-(2-(4-((3-difluoromethoxybenzyl)oxy)phenyl)-7,8-dihydro-1,6-naphthyridin-6(5H)-yl)propanoic acid]
19 | > 1000 nM | 1000 to 10000 nM | > 1000 nM | O=C(O)CCN1CCc2ncc(-c3ccc(OCc4ccccc4)cc3)nc2C1 [Compound 221, 3-(3-(4-(benzyloxy)phenyl)-7,8-dihydropyrido[3,4-b]pyrazin-6(5H)-yl)propanoic acid]
20 | > 1000 nM | 10 to 100 nM | > 1000 nM | O=C(O)CCCN1CCc2nc(-c3ccc(OCc4ccccc4)cc3)ncc2C1 [Compound 37, 4-(2-(4-(benzyloxy)phenyl)-7,8-dihydro-dihydropyrido[4,3-d]pyrimidin-6(5H)-yl)butanoic acid]
21 | > 1000 nM | < 10 nM | > 1000 nM | CC(CN1CCc2nc(-c3ccc(OCc4cccc(Cl)c4)cc3)ncc2C1)C(=O)O (stereo not drawn) [Compound 10, 3-(2-(4-((3-chlorobenzyl)oxy)phenyl)-7,8-dihydropyrido[4,3-d]pyrimidin-6(5H)-yl)-2-methylpropanoic acid]
22 | > 1000 nM | 1000 to 10000 nM | > 1000 nM | CC(CN1CCc2nc(-c3cccc(OCc4ccccc4)c3)ccc2C1)C(=O)O (stereo not drawn) [Compound 107]
23 | > 1000 nM | 1000 to 10000 nM | > 1000 nM | O=C(O)CCCN1Cc2cnc(-c3ccc(OCc4ccccc4)cc3)nc2C1 [Compound 99, 4-(2-(4-(benzyloxy)phenyl)-5H-pyrrolo[3,4-d]pyrimidin-6(7H)-yl)butanoic acid]
24 | > 1000 nM | 10 to 100 nM | > 1000 nM | O=C(O)CCN1CCc2nc(-c3ccc(OCc4ccccc4)cc3)ncc2C1 [Compound 67, 3-(2-(4-(benzyloxy)phenyl)-7,8-dihydropyrido[4,3-d]pyrimidin-6(5H)-yl)propanoic acid]
25 | > 1000 nM | 1000 to 10000 nM | > 1000 nM | O=C(O)CCN1Cc2ccc(-c3cccc(OCc4cccc(F)c4)c3)nc2C1 [Compound 203, 3-(2-(3-((3-fluorobenzyl)oxy)phenyl)-5H-pyrrolo[3,4-b]pyridin-6(7H)-yl)propanoic acid]
26 | > 1000 nM | 100 to 1000 nM | > 1000 nM | Cc1cc(-c2ccc3c(n2)CCN(C2CC(C(=O)O)C2)C3)ccc1OCc1ccccc1 (stereo not drawn) [Compound 117, 3-(2-(4-(benzyloxy)-3-methylphenyl)-7,8-dihydro-1,6-naphthyridin-6(5H)-yl)cyclobutanecarboxylic acid]
27 | > 1000 nM | 1000 to 10000 nM | > 1000 nM | O=C(O)CCN1Cc2cnc(-c3ccc(OCc4ccccc4)cc3)nc2C1 [Compound 100, 3-(2-(4-(benzyloxy)phenyl)-5H-pyrrolo[3,4-d]pyrimidin-6(7H)-yl)propanoic acid]
